Source: patent publication US20160115540A1, “PRODRUGS AND DRUGS” (Biogen MA Inc., priority 2013, published 2016)
Where a name gives a salt, the structure may show the parent alone.

Tested on: kidney
Test: Transcriptional profiling on Affymetrix GeneChips, single dose, naïve mice: kidney
Assay type: in vivo, C57BL/6 mice
Conditions: for Number of differentially expressed genes identified: Kidney: Naïve, Single Dose, 100 mpk, vs Vehicle
Procedure: Treated mice were sacrificed at 2, 7, or 12 hours. Tissues (liver, spleen, kidney, jejunum, cortex, hippocampus, striatum and whole blood) were collected and analyzed by transcriptional profiling on mouse Affymetrix GeneChips.
Tissues (liver, spleen, kidney, jejunum, cortex, hippocampus, striatum and whole blood) were collected and analyzed by transcriptional profiling on mouse Affymetrix GeneChips.
Animals were exposed to CO2 and whole blood collected via cardiac puncture. Two 100 μl aliquots of whole blood were collected in 1.5 mL microcentrifuge tubes and snap frozen in liquid nitrogen. Peripheral (liver, spleen, kidney and jejunum) and CNS brain (cerebellum, hippocampus, striatum and cortex) tissues were harvested and snap frozen in liquid nitrogen, with special care taken to collect tissues of similar size and from the same location. All samples were stored at −80° C. until RNA extraction was conducted.
For RNA preparation, frozen tissues were placed in 2 mL RNAse-free 96-well blocks with 1.5 mL QIAzol Lysis Reagent (QIAgen) and a 3.2 mm stainless steel bead (BioSpec Products, Bartlesville, Okla.). Tissues were disrupted for four cycles of 45 seconds in a Mini-Beadbeater (Biospec Products). RNA was extracted in chloroform and the aqueous phase was mixed with an equal volume of 70% ethanol. Extracted RNA was applied to RNeasy 96 plates and purified by the spin method according to the manufacturer's protocol (RNeasy 96 Universal Tissue Protocol, QIAgen, Hilden Germany).
Automated sample amplifications and biotin labelings were carried out using the NuGEN Ovation RNA Amplification system V2 (Cat #3100), Ovation WB reagent (Cat #1300) and Encore Biotin module (Cat #4200) (NuGEN Technologies, Inc, San Carlos, Calif.) according to manufacturer's recommendations using an Arrayplex automated liquid handler (Beckman Coulter, Indianapolis, Ind.). Two micrograms of biotin labeled sscDNA probe were hybridized to Affymetrix GeneChip Affymetrix HT_MG-430_PM plate arrays with modified conditions as described in Allaire et al. Washing and staining of the hybridized arrays were completed as described in the GeneChip Expression analysis technical manual for HT plate arrays using the Genechip® Array Station (Affymetrix, Santa Clara, Calif.) with modifications as described in Allaire et al. The processed GeneChip® plate arrays were scanned using GeneTitan scanner (Affymetrix, Santa Clara, Calif.).
Affymetrix scans were subject to quality control (QC) measures. These tests included a visual inspection of the distribution of raw signal intensities and an assessment of RNA degradation, relative log expression (RLE), and normalized unsealed standard error (NUSE). All sample scans that passed these QC metrics were included in the analysis.
All CEL files were subjected to GC-content-based Robust Multi-array Average (GCRMA) normalization (version 2.20.0) (Irizarry R A, et al. Nucleic Acids Res 2003; 31:e15; Li C, et al. Genome Biol 2001; 2:[…]0032). Expression levels were log (base 2) transformed.
All calculations and analyses were carried out using R (version 2.11.1) and Bioconductor computational tools (Gentleman R. Springer Science+Business Media 2005).

SMILES: COC(=O)/C=C/C(=O)O [MMF, monomethyl fumarate]
- FC Hfe 1422645_PM_at (100MMF-vs-Veh, 12 h): 1.56
- FC Ikbkg 1421209_PM_s_at (100MMF-vs-Veh, 12 h): 1.57
- FC Mep1b 1418215_PM_at (100MMF-vs-Veh, 12 h): −1.55
- FC Mthfd2 1419253_PM_at (100MMF-vs-Veh, 12 h): 1.65
- FC Myo5a 1419754_PM_at (100MMF-vs-Veh, 12 h): −3.09
- FC Nek6 1423596_PM_at (100MMF-vs-Veh, 12 h): 1.69
- FC Pnkd 1418746_PM_at (100MMF-vs-Veh, 12 h): 1.51
- FC Slc6a4 1417150_PM_at (100MMF-vs-Veh, 12 h): 1.58
- FC Slc38a3 1418706_PM_at (100MMF-vs-Veh, 12 h): 1.81
- FC Smcp 1418358_PM_at (100MMF-vs-Veh, 12 h): −2.49
- FC Srxn1 (1419942_PM_at) (100MMF-vs-Veh, 12 h): 1.96
- FC Tfrc 1422966_PM_a_at (100MMF-vs-Veh, 12 h): 1.51
- FC Tiam2 1423186_PM_at (100MMF-vs-Veh, 12 h): 1.84
- FC Txnrd1 1421529_PM_a_at (100MMF-vs-Veh, 12 h): 1.55
- Number of genes, DMF Only / MMF Only (Kidney): 94
- Asns (1451095_PM_at) differential expression (Kidney, 2 hr): 2.46
- Cbr3 (1427912_PM_at) differential expression (Kidney, 2 hr): 2.96
- Gdf15 (1418949_PM_at) differential expression (Kidney, 2 hr): 5.50
- Maf (probe set 1437473_PM_at) differential expression (Kidney, 2 hr): −1.56
- Mthfd2 (1419253_PM_at) differential expression (Kidney, 2 hr): 2.03
- Number of differentially expressed genes identified: Kidney (2 h after last dosing): 274
- Number of differentially expressed genes identified: Kidney (7 h after last dosing): 156
- Number of differentially expressed genes identified: Kidney (12 h after last dosing): 151
- Asns (1451095_PM_at) differential expression (kidney, 7 hr): 2.13
- Cbr1 (probe set 1460196_PM_at) differential expression (kidney, 7 hr): 1.58
- Cbr3 (1427912_PM_at) differential expression (kidney, 7 hr): 9.54
- Cul9 (probe set 1439866_PM_at) differential expression (kidney, 7 hr): −1.52
- Dbp (probe set 1418174_PM_at) differential expression (kidney, 7 hr): −1.73
- Fam107a (probe set 1435918_PM_at) differential expression (kidney, 7 hr): −1.77
- Frem2 (probe set 1457038_PM_at) differential expression (kidney, 7 hr): −1.66
- Gdf15 (1418949_PM_at) differential expression (kidney, 7 hr): 1.98
- Gpr135 (probe set 1441944_PM_s_at) differential expression (kidney, 7 hr): 1.66
- Ido2 (probe set 1425778_PM_at) differential expression (kidney, 7 hr): −1.52
- Il18 (probe set 1417932_PM_at) differential expression (kidney, 7 hr): −1.52
- Kcnh1 (probe set 1435994_PM_at) differential expression (kidney, 7 hr): −1.61
- Kif20b (probe set 1439695_PM_a_at) differential expression (kidney, 7 hr): −2.61
- Mthfd2 (1419253_PM_at) differential expression (kidney, 7 hr): 1.89
- Nmral1 (probe set 1430530_PM_s_at) differential expression (kidney, 7 hr): −1.52
- Ppm1e (probe set 1434990_PM_at) differential expression (kidney, 7 hr): −1.53
- Rab38 (probe set 1417700_PM_at) differential expression (kidney, 7 hr): −1.57
- Slc48a1 (probe set 1450410_PM_a_at) differential expression (kidney, 7 hr): 1.58
- Sphk2 (probe set 1426230_PM_at) differential expression (kidney, 7 hr): −1.54
- Tmem86a (probe set 1428758_PM_at) differential expression (kidney, 7 hr): −1.56
- Wdr90 (probe set 1426767_PM_at) differential expression (kidney, 7 hr): −1.58
- Acot1 (probe set 1449065_PM_at) differential expression (kidney, 12 hr): 1.59
- Acot1 /// Acot2 (probe set 1422997_PM_s_at) differential expression (kidney, 12 hr): 1.51
- Acsm2 (probe set 1427224_PM_at) differential expression (kidney, 12 hr): −1.52
- Aldh1a1 (probe set 1416468_PM_at) differential expression (kidney, 12 hr): 2.21
- Arhgap26 (probe set 1440688_PM_at) differential expression (kidney, 12 hr): −1.57
- Asns (1451095_PM_at) differential expression (kidney, 12 hr): 2.49
- Atp11a (probe set 1421167_PM_at) differential expression (kidney, 12 hr): −1.62
- B4galt5 (probe set 1433617_PM_s_at) differential expression (kidney, 12 hr): −1.51
- C8a (probe set 1428012_PM_at) differential expression (kidney, 12 hr): −1.51
- Cbr1 (probe set 1460196_PM_at) differential expression (kidney, 12 hr): 2.10
- Cbr3 (1427912_PM_at) differential expression (kidney, 12 hr): 7.02
- Cldn1 (probe set 1437932_PM_a_at) differential expression (kidney, 12 hr): 1.57
- Dio3os (probe set 1435121_PM_at) differential expression (kidney, 12 hr): 1.60
- Dpys (probe set 1436291_PM_a_at) differential expression (kidney, 12 hr): 1.51
- Ep400 (probe set 1449610_PM_at) differential expression (kidney, 12 hr): −1.67
- Fga (probe set 1424279_PM_at) differential expression (kidney, 12 hr): 1.79
- Gbe1 (probe set 1420654_PM_a_at) differential expression (kidney, 12 hr): 1.51
- Gdf15 (1418949_PM_at) differential expression (kidney, 12 hr): 2.01
- Gpr19 (probe set 1421756_PM_a_at) differential expression (kidney, 12 hr): 1.50
- Gpr135 (probe set 1441944_PM_s_at) differential expression (kidney, 12 hr): 1.59
- Gpt (probe set 1426502_PM_s_at) differential expression (kidney, 12 hr): 1.51
- Gsta2 (probe set 1421040_PM_a_at) differential expression (kidney, 12 hr): 1.61
- Gstp1 (probe set 1449575_PM_a_at) differential expression (kidney, 12 hr): 1.54
- Kif20b (probe set 1439695_PM_a_at) differential expression (kidney, 12 hr): −2.85
- Klk1b21 (probe set 1451607_PM_at) differential expression (kidney, 12 hr): 1.57
- Maf (probe set 1437473_PM_at) differential expression (kidney, 12 hr): 1.53
- Mthfd2 (1419253_PM_at) differential expression (kidney, 12 hr): 1.65
- Nek6 (probe set 1423596_PM_at) differential expression (kidney, 12 hr): 1.69
- Nfia (probe set 1446742_PM_at) differential expression (kidney, 12 hr): −1.74
- Orc4 (probe set 1431172_PM_at) differential expression (kidney, 12 hr): 1.50
- Pigl (probe set 1440965_PM_at) differential expression (kidney, 12 hr): 1.52
- Pnkd (probe set 1418746_PM_at) differential expression (kidney, 12 hr): 1.51
- Rcor3 (probe set 1428343_PM_at) differential expression (kidney, 12 hr): −1.51
- Reep6 (probe set 1430128_PM_a_at) differential expression (kidney, 12 hr): 1.51
- Slc5a3 (probe set 1440227_PM_at) differential expression (kidney, 12 hr): −1.50
- Slc6a4 (probe set 1417150_PM_at) differential expression (kidney, 12 hr): 1.58
- Slc8a1 (probe set 1437675_PM_at) differential expression (kidney, 12 hr): −1.86
- Slc38a3 (probe set 1418706_PM_at) differential expression (kidney, 12 hr): 1.81
- Slc39a8 (probe set 1448482_PM_at) differential expression (kidney, 12 hr): −1.55
- Slc48a1 (probe set 1450410_PM_a_at) differential expression (kidney, 12 hr): 1.53
- Slco2a1 (probe set 1444242_PM_at) differential expression (kidney, 12 hr): 1.63
- Smarca2 (probe set 1452333_PM_at) differential expression (kidney, 12 hr): −1.60
- Tfrc (probe set 1422966_PM_a_at) differential expression (kidney, 12 hr): 1.51
- Tmie (probe set 1443964_PM_at) differential expression (kidney, 12 hr): 1.65
- Trim16 (probe set 1460629_PM_at) differential expression (kidney, 12 hr): 1.51
- FC 1200003I10Rik /// 1200015M12Rik /// A130040M12Rik /// E430024C06Rik 1427932_PM_s_at (kidney, 100MMF-vs-Veh, 12 h): 1.54
- FC 1200016E24Rik (1452418_PM_at) (kidney, 100MMF-vs-Veh, 12 h): 1.50
- FC 1300002K09Rik 1453234_PM_at (kidney, 100MMF-vs-Veh, 12 h): 1.88
- FC 1441333_PM_at (no gene symbol) (kidney, 100MMF-vs-Veh, 12 h): −2.46
- FC 1441971_PM_at (no gene symbol) (kidney, 100MMF-vs-Veh, 12 h): 1.51
- FC 1444920_PM_at (no gene symbol) (kidney, 100MMF-vs-Veh, 12 h): −1.56
- FC 1447396_PM_at (no gene symbol) (kidney, 100MMF-vs-Veh, 12 h): −1.52
- FC 1455722_PM_at (no gene symbol) (kidney, 100MMF-vs-Veh, 12 h): −1.53
- FC 1458599_PM_at (no gene symbol) (kidney, 100MMF-vs-Veh, 12 h): 1.57
- FC 1459091_PM_at (no gene symbol) (kidney, 100MMF-vs-Veh, 12 h): 2.38
- FC 2010003K11Rik (1424626_PM_at) (kidney, 100MMF-vs-Veh, 12 h): 1.65
- FC 2310043L19Rik (1440008_PM_at) (kidney, 100MMF-vs-Veh, 12 h): 1.86
- FC 3110009E18Rik (1428023_PM_at) (kidney, 100MMF-vs-Veh, 12 h): 1.58
- FC 4933427G17Rik 1431905_PM_s_at (kidney, 100MMF-vs-Veh, 12 h): 1.59
